Laboratory results from ChEMBL document CHEMBL1128140, “Novel indolocarbazole protein kinase c inhibitors with improved biochemical and physicochemical properties” (Bioorg Med Chem Lett, 1995).

Experiments:
[1] = Tested for inhibition of catalytic subunit of cAMP-dependent protein kinase from bovine heart
Protein kinase C (PKC) = assay: Tested for inhibition of protein kinase C from rat brain
[2] = biological target: T1, cGMP-dependent protein kinase 1 (Bos taurus, UniProt P00516); assay: Tested for inhibition of cGMP-dependent protein kinase from bovine lung
T1 sequence (P00516 whole entry): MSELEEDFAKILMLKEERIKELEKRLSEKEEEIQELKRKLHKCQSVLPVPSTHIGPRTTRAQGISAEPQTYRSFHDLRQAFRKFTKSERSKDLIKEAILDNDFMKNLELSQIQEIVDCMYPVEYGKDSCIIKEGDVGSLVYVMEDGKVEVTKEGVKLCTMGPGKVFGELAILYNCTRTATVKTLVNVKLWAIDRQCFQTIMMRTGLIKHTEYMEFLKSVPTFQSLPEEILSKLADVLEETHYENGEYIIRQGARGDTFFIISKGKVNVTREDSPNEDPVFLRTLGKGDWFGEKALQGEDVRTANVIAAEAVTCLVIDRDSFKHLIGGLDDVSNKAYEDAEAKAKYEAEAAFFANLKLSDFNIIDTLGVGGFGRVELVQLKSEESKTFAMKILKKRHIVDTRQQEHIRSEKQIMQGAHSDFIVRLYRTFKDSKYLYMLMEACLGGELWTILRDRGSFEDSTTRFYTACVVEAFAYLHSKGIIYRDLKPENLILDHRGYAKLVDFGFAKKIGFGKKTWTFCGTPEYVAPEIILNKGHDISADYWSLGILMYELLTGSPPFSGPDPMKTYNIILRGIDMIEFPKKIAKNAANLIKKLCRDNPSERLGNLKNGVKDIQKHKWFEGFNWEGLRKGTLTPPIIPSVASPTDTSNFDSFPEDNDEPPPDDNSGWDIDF

[3] = biological target: Tyrosine-protein kinase Blk (Mus musculus, UniProt P16277); assay: Tested for inhibition of general tyrosine-specific protein kinase activity from murine B cell lysate; type: cell-based
Sequence of Tyrosine-protein kinase Blk (P16277 whole entry): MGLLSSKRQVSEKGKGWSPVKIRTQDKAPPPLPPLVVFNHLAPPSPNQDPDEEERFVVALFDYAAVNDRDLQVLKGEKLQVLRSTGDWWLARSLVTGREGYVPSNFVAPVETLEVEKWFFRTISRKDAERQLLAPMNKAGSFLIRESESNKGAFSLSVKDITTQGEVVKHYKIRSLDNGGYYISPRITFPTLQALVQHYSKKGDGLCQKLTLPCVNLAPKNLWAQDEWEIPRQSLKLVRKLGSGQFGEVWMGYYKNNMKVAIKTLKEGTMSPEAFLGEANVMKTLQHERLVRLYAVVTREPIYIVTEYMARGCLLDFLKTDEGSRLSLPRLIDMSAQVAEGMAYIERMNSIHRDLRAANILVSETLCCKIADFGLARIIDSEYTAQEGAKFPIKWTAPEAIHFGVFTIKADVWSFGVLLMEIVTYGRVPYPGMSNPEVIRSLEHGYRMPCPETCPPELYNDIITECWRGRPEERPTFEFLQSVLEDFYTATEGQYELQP

With `COc1ccc2c(c1)c1c3c(c4c5ccccc5n(C)c4c1n2CC(O)CN(C)C)C(=O)NC3` (centres undefined) the IC50 [1] was 15 µM, the IC50 (Protein kinase C (PKC)) was 0.086 µM and the IC50 [2] was 23000 nM. For the same compound, the IC50 [3] was > 10 µM.

With `Cn1c2ccc(O)cc2c2c3c(c4c5cc(O)ccc5n(CCC#N)c4c21)CNC3=O` the IC50 (Protein kinase C (PKC)) was 0.009 µM.

In the case of `CN(C)CCCn1c2ccccc2c2c3c(c4c5ccccc5[nH]c4c21)C(=O)NC3`, the IC50 [1] is reported as > 10 µM, the IC50 (Protein kinase C (PKC)) is reported as 0.23 µM and the IC50 [2] is reported as 420 nM.

With `Cn1c2ccccc2c2c3c(c4c5ccccc5n(CCC#N)c4c21)C(=O)NC3=O` the IC50 [1] was > 30 µM, the IC50 (Protein kinase C (PKC)) was 0.038 µM and the IC50 [2] was 7200 nM.

In the case of `COc1ccc2c(c1)c1c3c(c4c5ccccc5n(CCC#N)c4c1n2C)C(=O)NC3=O`, the IC50 (Protein kinase C (PKC)) is reported as 0.016 µM.

Work on `COc1ccc2c(c1)c1c3c(c4c5cc(OC)ccc5n(CCC#N)c4c1n2C)CNC3=O` yielded an IC50 [1] of 45 µM, an IC50 (Protein kinase C (PKC)) of 0.056 µM and an IC50 [2] of 2000 nM. For the same compound, the IC50 [3] was > 10 µM.

Compound `Cn1c2ccccc2c2c3c(c4c5ccccc5n(CCCN)c4c21)CNC3=O` has an IC50 [1] of 0.75 µM, an IC50 (Protein kinase C (PKC)) of 0.032 µM and an IC50 [2] of 220 nM.

`COc1ccc2c(c1)c1c3c(c4c5ccccc5n(C)c4c1n2CCCC#N)C(=O)NC3=O` showed an IC50 [1] of 0.2 µM, an IC50 (Protein kinase C (PKC)) of 0.005 µM and an IC50 [2] of 1000 nM.

In the case of `CN(C)CC(O)Cn1c2ccccc2c2c3c(c4c5ccccc5n(C)c4c21)C(=O)NC3` (centres undefined), the IC50 [1] is reported as 24 µM, the IC50 (Protein kinase C (PKC)) is reported as 0.03 µM and the IC50 [2] is reported as 9400 nM. The IC50 [3] was > 100 µM.

`COc1ccc2[nH]c3c(c4c(c5c6cc(OC)ccc6n(CCCN(C)C)c35)CNC4=O)c2c1` showed an IC50 (Protein kinase C (PKC)) of 0.55 µM.

In the case of `Cn1c2ccccc2c2c3c(c4c5ccccc5n(CCC#N)c4c21)CNC3=O` [GO-6976], the IC50 [1] is reported as > 100 µM and the IC50 (Protein kinase C (PKC); read-out: IC50) is reported as 0.02 µM.

`COc1ccc2c(c1)c1c3c(c4c5cc(OC)ccc5n(CCC#N)c4c1n2C)C(=O)NC3=O` gave an IC50 (Protein kinase C (PKC)) of 0.006 µM.

For `COc1ccc2c(c1)c1c3c(c4c5ccccc5n(C)c4c1n2CCC#N)C(=O)NC3=O`, the IC50 [1] was 0.4 µM, the IC50 (Protein kinase C (PKC)) was 0.002 µM and the IC50 [2] was > 3000 nM. For the same compound, the IC50 [3] was > 10 µM.

`CN(C)CCCn1c2ccccc2c2c3c(c4c5ccccc5n(C)c4c21)C(=O)NC3` gave an IC50 [1] of 9.9 µM, an IC50 (Protein kinase C (PKC)) of 0.045 µM and an IC50 [2] of 870 nM.

With `COc1ccc2c(c1)c1c3c(c4c5ccccc5n(C)c4c1n2CC(O)CN(C)C)C(=O)NC3=O` (centres undefined) the IC50 [1] was 0.51 µM, the IC50 (Protein kinase C (PKC)) was 0.004 µM and the IC50 [2] was 4800 nM.

Compound `CN(C)CC(O)Cn1c2ccccc2c2c3c(c4c5ccccc5n(C)c4c21)C(=O)NC3=O` (centres undefined) has an IC50 [1] of 6.3 µM, an IC50 (Protein kinase C (PKC)) of 0.021 µM and an IC50 [2] of 2100 nM.

`CN(C)CCCn1c2ccc(O)cc2c2c3c(c4c5cc(O)ccc5[nH]c4c21)C(=O)NC3` showed an IC50 (Protein kinase C (PKC)) of 0.016 µM.
